What was measured:
Class I ADH = test: Kinetics of enzymatic reduction of methoxynaphthaldehydes by Class I ADH isozymes; assay type: biochemical, human; conditions: for kcat / Km: Table IV; for kcat: average for Class I isozymes except ββ forms; for Km: range over Class I isozymes
Method: (§1) Aldehyde reduction was monitored by following the decrease of absorption at 340 nm in 40 mM Mes buffer, pH 7.1. in the presence of saturating NADH, 50 μM for Class I and 100 μM for Class II. […] Initial reaction rates were measured and kinetic parameters determined by conventional procedures as described by Segel, 1975, Enzyme Kinetics, pp. 591-597, Wiley, N.Y.
(§2) All reaction mixtures (3 ml total volume) were prepared directly in 1 cm pathlength, 4 ml fluorometric cuvettes by adding 150 μl of the 300 μM substrate solution (e.g substrate IA or IIA) 100 μl of the 1 mM NADH solution (prepared as in part 5 above) and 2.69 ml of assay buffer (0.1M phosphate, pH 7.6). After thermal equilibration (25° C.) for 5 minutes, 60 μl of isozyme sample (either serum or purified ADH isozymes) was added to the cuvette.
(§3) The linear increase of fluorescence was then recorded for 1-10 minutes, until 0.03-1 μM of substrate was consumed. Larger substrate consumption was not found to be desirable (described in subpart (c) below). After this period the instrument sensitivity setting was reduced 10-30 fold, the signal compensated once again by zero suppression (see part 6 above), and 60 μl of 200-400 μM product (e.g., product IB or IIB) was added to provide an internal standard. The added product fluorescence intensity was then measured Fluorescence measurements were optimized for samples with low activity (<1 nM/minute). For samples with higher activity, repeat measurements were made with the serum volume reduced from 60 μl to 10 μl. Rates measured in the presence of the 0.2 mM ADH inhibitors. 4-MeP or 4-PeP, were made by adding 50 μl of 12 mM inhibitor to the cuvette prior to the assay buffer, and the reaction was carried out as above.
(§4) The rates of aldehyde reduction, determined as initial velocities (V) and expressed in units of nM/minute, were calculated according to: [formula] where the quantity in parentheses is the slope of the linear fluorescence increase calculated from the quantities Ft and FO, the fluorescence at time t and at the beginning of the reaction, respectively. Cst is the concentration of the product used as a standard added to the cuvette after the initial rate had been measured and Fst is the fluorescence intensity of the added product
Additionally the reaction rates for these isozymes were compared to those measured by the standard assay for ethanol oxidation (see part 7 above) at pH 10.0 the optimum for oxidation of ethanol by ADH. The rate of IA reduction for all Class I isozymes except the β1 β1 form is 1.5- to 4-fold faster than that of ethanol oxidation as measured by the conventional ethanol oxidation assay. […] Table III illustrates that IIA is an excellent substrate for Class II (.eta.) ADH, with a rate of IIA reduction at least 8-fold faster than that of ethanol oxidation.
The values for these constants were determined with purified Class II ADH or a mixture of purified Class I isozymes, under the fluorometric assay conditions described above in Example 1.

β2 β2 ADH (Class I) = target: T1, β2 β2 ADH (Class I) (Homo sapiens, UniProt P00325); test: Kinetics of enzymatic reduction of methoxynaphthaldehydes by β2β2 ADH; assay type: biochemical; conditions: Table IV; nm = not measurable
T1 construct: beta2 allele (ADH1B*2)
Method: as §1
as §2, with “After thermal equilibration (25° C.) for 5 minutes, 60 μl of isozyme sample (either serum or purified ADH isozymes) was added to the cuvette.” left out
(§5) The linear increase of fluorescence was then recorded for 1-10 minutes, until 0.03-1 μM of substrate was consumed. […] The added product fluorescence intensity was then measured Fluorescence measurements were optimized for samples with low activity (<1 nM/minute). […] Rates measured in the presence of the 0.2 mM ADH inhibitors. […]
as §4, with “Cst is the concentration of the product used as a standard added to the cuvette after the initial rate had been measured and Fst is the fluorescence intensity of the added product” left out

αβ1 ADH (Class I) = target: T2, αβ1 ADH (Class I) (Homo sapiens, UniProt P00325+P07327); test: Kinetics of enzymatic reduction of methoxynaphthaldehydes by αβ1 ADH; assay type: biochemical; conditions: rate relative to ethanol oxidation at pH 10.0
T2 construct: beta1 allele (ADH1B*1, Arg47 and Arg369 in mature count)
Method: (§6) Standard assays for ethanol oxidation activity (Dalziel, 1957, Acta Chem Scand 11:1706-23) were carried out on a Cary 219 spectrophotometer interfaced with an Apple IIe microcomputer, using software provided by Varian Associates. The reaction mixture contained 2.5 mM NAD^+ in 0.1M glycine-NaOH buffer. pH 10.0, and 33 mM or 0.2M ethanol for Class I and Class II ADH, respectively.
as §1, with “N.Y. […]” for “N.Y.”
as §5
(§7) Additionally the reaction rates for these isozymes were compared to those measured by the standard assay for ethanol oxidation (see part 7 above) at pH 10.0 the optimum for oxidation of ethanol by ADH. […]

[1] = tested on: ADH in human serum (Class I); test: Fluorometric measurement of serum ADH activity with substrate IA; assay type: biochemical; conditions: between-run repeatability, 2 minutes reaction, n=5
Method: as §2
as §5, with “consumed. Larger substrate consumption was not found to be desirable (described in subpart (c) below).” for “consumed.”
as §4, with “added product […]” for “added product”

[2] = Stability of substrates and product solutions; assay type: physicochemical; conditions: for stability in stock solution: 20° C., 30 days, water:acetonitrile (70:30 v/v)
Method: The dilute solutions (300 μM) were prepared by diluting 1 ml of the stock solution to 10 ml with water.
Concentrations were determined spectrophotometrically using a molar absorptivity of 5700 M^-1 cm^-1 at 296 nm for IB and 1270 M^-1 cm^-1 at 330 nm for IIB.

β1 γ2 ADH (Class I) = target: T3, β1 γ2 ADH (Class I) (Homo sapiens, UniProt P00325+P00326, I350V/R272Q); test: Kinetics of enzymatic reduction of methoxynaphthaldehydes by β1γ2 ADH; assay type: biochemical; conditions: rate relative to ethanol oxidation at pH 10.0
T3 construct: beta1 (ADH1B*1) and gamma2 (ADH1C*2) alleles
Method: as §6
as §1, with “N.Y. […]” for “N.Y.”
as §5, §7

[3] = target: ADH in human serum (Class II) (Homo sapiens, UniProt P08319); test: Fluorometric measurement of serum ADH activity with substrate IIA; assay type: biochemical
Method: as §2
as §3, with “For samples with higher activity, repeat measurements were made with the serum volume reduced from 60 μl to 10 μl.” left out, “4-MeP or 4-PeP, were made by adding 50 μl of 12 mM inhibitor to the cuvette prior to the assay buffer, and the reaction was carried out as above.” left out
as §4
Using the instrumentation described in Example 1, part 7, reaction rates as low as 6.5 nM/minute for IA and 25 nM/minute for IIA were reproducible. The limits of detection, i.e.. the point at which the fluorescence change after eight minutes becomes twice the noise level, were 1 nM/minute and 5 nM/minute for the two substrates, IA and IIA, respectively. […]

Class III (.chi.) ADH = Class III (.chi.) ADH (Homo sapiens, UniProt P11766); test: Kinetics of enzymatic reduction of methoxynaphthaldehydes by Class III ADH; assay type: biochemical
Sequence of Class III (.chi.) ADH (P11766 whole entry): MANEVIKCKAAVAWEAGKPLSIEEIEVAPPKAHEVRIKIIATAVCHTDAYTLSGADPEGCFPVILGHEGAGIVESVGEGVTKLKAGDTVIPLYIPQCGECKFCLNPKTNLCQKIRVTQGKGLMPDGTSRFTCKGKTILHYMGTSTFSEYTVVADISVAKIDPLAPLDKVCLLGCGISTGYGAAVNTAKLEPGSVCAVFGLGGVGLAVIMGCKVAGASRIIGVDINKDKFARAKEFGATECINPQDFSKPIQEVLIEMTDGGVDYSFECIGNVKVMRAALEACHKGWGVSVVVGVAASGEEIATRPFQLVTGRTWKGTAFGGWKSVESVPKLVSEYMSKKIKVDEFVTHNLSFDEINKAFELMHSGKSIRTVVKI

Sequence of ADH in human serum (Class II) (P08319 whole entry): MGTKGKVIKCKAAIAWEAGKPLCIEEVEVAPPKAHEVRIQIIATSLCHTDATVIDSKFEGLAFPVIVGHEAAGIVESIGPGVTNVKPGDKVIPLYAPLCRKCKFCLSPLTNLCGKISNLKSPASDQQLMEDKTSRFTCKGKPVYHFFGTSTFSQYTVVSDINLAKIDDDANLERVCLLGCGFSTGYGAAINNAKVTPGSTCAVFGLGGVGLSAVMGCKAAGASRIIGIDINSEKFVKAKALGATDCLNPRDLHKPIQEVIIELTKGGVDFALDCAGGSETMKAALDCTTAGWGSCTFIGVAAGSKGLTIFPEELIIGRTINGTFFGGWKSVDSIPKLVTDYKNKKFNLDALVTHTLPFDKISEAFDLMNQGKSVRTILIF
T3 sequence (P00325 2-375, stated change not applied): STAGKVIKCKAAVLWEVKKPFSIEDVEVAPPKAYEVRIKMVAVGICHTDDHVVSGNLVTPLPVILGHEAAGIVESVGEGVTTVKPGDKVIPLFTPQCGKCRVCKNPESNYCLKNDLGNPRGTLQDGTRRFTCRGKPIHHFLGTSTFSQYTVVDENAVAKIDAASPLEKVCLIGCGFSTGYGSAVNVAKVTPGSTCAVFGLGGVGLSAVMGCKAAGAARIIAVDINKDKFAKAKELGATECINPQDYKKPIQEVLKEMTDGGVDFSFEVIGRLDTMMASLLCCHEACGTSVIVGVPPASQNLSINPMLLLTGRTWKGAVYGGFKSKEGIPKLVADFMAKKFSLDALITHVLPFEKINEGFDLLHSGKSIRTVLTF
T3 sequence (P00326 2-375 R272Q/I350V): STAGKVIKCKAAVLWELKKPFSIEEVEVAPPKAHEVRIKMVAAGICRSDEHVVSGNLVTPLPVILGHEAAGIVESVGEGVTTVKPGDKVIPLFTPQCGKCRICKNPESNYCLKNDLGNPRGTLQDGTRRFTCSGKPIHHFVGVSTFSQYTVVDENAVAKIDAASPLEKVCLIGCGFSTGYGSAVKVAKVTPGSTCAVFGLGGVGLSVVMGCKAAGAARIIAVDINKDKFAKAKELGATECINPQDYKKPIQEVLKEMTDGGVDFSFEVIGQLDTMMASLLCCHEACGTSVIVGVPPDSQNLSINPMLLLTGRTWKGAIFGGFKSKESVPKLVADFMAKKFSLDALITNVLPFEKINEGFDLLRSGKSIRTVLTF
T2 sequence (P07327 2-375): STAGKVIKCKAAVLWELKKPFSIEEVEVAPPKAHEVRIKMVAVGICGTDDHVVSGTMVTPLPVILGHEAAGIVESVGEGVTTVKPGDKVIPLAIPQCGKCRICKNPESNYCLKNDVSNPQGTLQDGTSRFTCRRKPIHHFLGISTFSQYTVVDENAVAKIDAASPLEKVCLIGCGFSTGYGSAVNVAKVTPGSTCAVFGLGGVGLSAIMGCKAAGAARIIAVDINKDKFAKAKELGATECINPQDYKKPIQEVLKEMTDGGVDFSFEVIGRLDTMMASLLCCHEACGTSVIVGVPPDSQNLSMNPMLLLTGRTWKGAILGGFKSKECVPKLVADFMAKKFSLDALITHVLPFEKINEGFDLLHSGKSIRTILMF
T2 sequence (P00325 2-375): as the sequence (P00325 2-375, stated change not applied) above
T1 sequence (P00325 2-375): as the sequence (P00325 2-375, stated change not applied) above

| Km (Class I ADH) | Km (β2 β2 ADH (Class I)) | v/v (EtOH) (αβ1 ADH (Class I)) | stability in stock solution [2] | stability in crystalline state [2] | stability of dilute aqueous solutions [2] | v/v (EtOH) (β1 γ2 ADH (Class I)) | limit of detection ([3]; fluorescence change twice noise after eight minutes) | lowest reproducible reaction rate ([3]; serum) | serum activity for IIA ([3]; thirty of thirty six hospital patient sera, average) | Km (Class III (.chi.) ADH; Class III ADH) | Km (Class III (.chi.) ADH; pH 7.0, 50 μM NADH, NR = no reaction detected) | substrate quality for Class III ADH (Class III (.chi.) ADH; words) | SMILES | kcat (Class I ADH) | a: ratio of specific rates for Class I to Class II ADH with IA as substrate (Class I ADH; fluorometric assay conditions) | Average rate [1] | rate of reduction versus ethanol oxidation (Class I ADH; Class I isozymes, words) | d: ratio of specific rates for Class I ADH with IIA and IA as substrates (Class I ADH; average value) | ratio of specific rates for Class I to Class II ADH with IIA as substrate (Class I ADH; average value) |
| --- | --- | --- | --- | --- | --- | --- | --- | --- | --- | --- | --- | --- | --- | --- | --- | --- | --- | --- | --- |
| 0.6 to 8.5 µM | nM | 1.59 | spectral changes were not observed | stable | much less stable | 3.4 | – | – | – | – | – | – | COc1ccc(C=O)c2ccccc12 [IA, 4-methoxy-1-naphthaldehyde] | 5.83 s⁻¹ | 0.022 | 144.8 nM/min | – | – | – |
| 0.4 to 11.5 µM | – | 0.74 | spectral changes were not observed | stable | much less stable | 1.6 | 5 nM/min | 25 nM/min | 15 ± 7 nM/min | > 500 µM | > 500 µM | very poor substrate | COc1ccc2cc(C=O)ccc2c1 [IIA, 6-methoxy-2-naphthaldehyde] | 1.83 s⁻¹ | – | – | generally slower, but still comparable | 0.27 | 0.27 |

Source: patent US5162203A, “Methods of measuring isozymes and isozyme classes of alcohol dehydrogenase” (President and Fellows of Harvard College, priority 1989, dated 1992)
